# Results reported in ChEMBL document CHEMBL5370592, “Synthesis and Structure-Activity Relationships of a New Class of Oxadiazoles Targeting DprE1 as Antitubercular Agents” (ACS Med Chem Lett, 2023).
# Calls of active or inactive are those of the source. No cut-off for these calls is given here.
# How the values were obtained:
# [1] = tested on: Mycobacterium tuberculosis; experiment: Induction of DNA damage in Mycobacterium tuberculosis H37Rv transfected with PrecA-LUX reporter assessed as induction of recA reporter gene expression incubated for 12 days by bioluminescence analysis; format: functional, organism-based; conditions: time 12.0 day
# [2] = tested on: Mycobacterium tuberculosis; experiment: Antitubercular activity against Mycobacterium tuberculosis H37RV ATCC 27294 assessed as inhibition of bacterial growth cultured in Middlebrook 7H9/cholesterol/BSA/Tyloxapol medium for 2 weeks; format: functional; conditions: H37Rv ATCC 27294, 336 h
# [3] = tested on: Mycobacterium tuberculosis; experiment: Antitubercular activity against Mycobacterium tuberculosis H37Rv ATCC 27294 assessed as inhibition of bacterial growth cultured in Middlebrook 7H9/BSA/Tyloxapol with glucose medium for 2 weeks; format: functional; conditions: H37Rv ATCC 27294, 336 h
# [4] = tested on: Mycobacterium tuberculosis; experiment: Antitubercular activity against Mycobacterium tuberculosis H37Rv ATCC 27294 assessed as inhibition of bacterial growth cultured in Middlebrook 7H9/ADC/Tween 80 medium for 2 weeks; format: functional; conditions: H37Rv ATCC 27294, 336 h
# [5] = tested on: Mycobacterium tuberculosis; experiment: Antitubercular activity against Mycobacterium tuberculosis H37Rv ATCC 27294 assessed as inhibition of bacterial growth cultured in Middlebrook 7H9/DPPC/cholesterol/BSA/Tyloxapol medium for 2 weeks; format: functional; conditions: H37Rv ATCC 27294, 336 h
# [6] = tested on: Mycobacterium tuberculosis; experiment: Antitubercular activity against Mycobacterium tuberculosis H37Rv ATCC 27294 assessed as inhibition of bacterial growth cultured in Middlebrook 7H9/glucose/casitone/tyloxapol medium for 2 weeks; format: functional; conditions: H37Rv ATCC 27294, 336 h
# [7] = tested on: Mycobacterium tuberculosis; experiment: Antitubercular activity against Mycobacterium tuberculosis H37Rv ATCC 27294 assessed as inhibition of bacterial growth cultured in Middlebrook 7H9/ADC/Tween 80 with cydC::aph medium for 2 weeks; format: functional; conditions: H37Rv ATCC 27294, 336 h
# [8] = tested on: Mycobacterium tuberculosis; experiment: Induction of DNA damage in Mycobacterium tuberculosis H37Rv transfected with PradA-LUX reporter assessed as induction of radA reporter gene expression incubated for 12 days by bioluminescence analysis; format: functional, organism-based; conditions: time 12.0 day
# [9] = tested on: Mycobacterium tuberculosis; experiment: Antitubercular activity against Mycobacterium tuberculosis K11b00DS assessed as inhibition of bacterial growth incubated for 2 weeks; format: functional; conditions: 336 h
# [10] = tested on: Mycobacterium tuberculosis; experiment: Antitubercular activity against Mycobacterium tuberculosis K09b00DS assessed as inhibition of bacterial growth incubated for 2 weeks; format: functional; conditions: 336 h
# [11] = tested on: Mycobacterium tuberculosis; experiment: Antitubercular activity against Mycobacterium tuberculosis K16b00DS assessed as inhibition of bacterial growth incubated for 2 weeks; format: functional; conditions: 336 h
# [12] = tested on: Mycobacterium tuberculosis; experiment: Antitubercular activity against Mycobacterium tuberculosis clinical strain K5072429 assessed as inhibition of bacterial growth incubated for 2 weeks; format: functional; conditions: K5072429, 336 h
# [13] = tested on: Mycobacterium tuberculosis; experiment: Antitubercular activity against Mycobacterium tuberculosis K17b00DS assessed as inhibition of bacterial growth incubated for 2 weeks; format: functional; conditions: 336 h
# [14] = tested on: Mycobacterium tuberculosis; experiment: Antitubercular activity against Mycobacterium tuberculosis K07b00DS assessed as inhibition of bacterial growth incubated for 2 weeks; format: functional; conditions: 336 h
# [15] = tested on: Mycobacterium tuberculosis; experiment: Antitubercular activity against Mycobacterium tuberculosis K10b00DS assessed as inhibition of bacterial growth incubated for 2 weeks; format: functional; conditions: 336 h
# [16] = tested on: Mycobacterium tuberculosis; experiment: Antitubercular activity against Mycobacterium tuberculosis K12b00DS assessed as inhibition of bacterial growth incubated for 2 weeks; format: functional; conditions: 336 h
# [17] = tested on: Mycobacterium tuberculosis; experiment: Antitubercular activity against Mycobacterium tuberculosis K35b00DS assessed as inhibition of bacterial growth incubated for 2 weeks; format: functional; conditions: 336 h
# [18] = tested on: Mycobacterium tuberculosis; experiment: Antitubercular activity against Mycobacterium tuberculosis CDC1551 assessed as inhibition of bacterial growth incubated for 2 weeks; format: functional; conditions: CDC1551, 336 h
# [19] = tested on: Mycobacterium tuberculosis; experiment: Antitubercular activity against Mycobacterium tuberculosis K15b00DS assessed as inhibition of bacterial growth incubated for 2 weeks; format: functional; conditions: 336 h
# [20] = tested on: Mycobacterium tuberculosis; experiment: Antitubercular activity against Mycobacterium tuberculosis NIH_G12 assessed as inhibition of bacterial growth incubated for 2 weeks; format: functional; conditions: NIH_G12, 336 h
# [21] = tested on: Mycobacterium tuberculosis; experiment: Antitubercular activity against Mycobacterium tuberculosis K05b00DS assessed as inhibition of bacterial growth incubated for 2 weeks; format: functional; conditions: 336 h
# [22] = tested on: Mycobacterium tuberculosis; experiment: Antitubercular activity against Mycobacterium tuberculosis K13b00DS assessed as inhibition of bacterial growth incubated for 2 weeks; format: functional; conditions: 336 h
# [23] = tested on: Mycobacterium tuberculosis; experiment: Antitubercular activity against Mycobacterium tuberculosis HN878 assessed as inhibition of bacterial growth incubated for 2 weeks; format: functional; conditions: HN878, 336 h
# [24] = tested on: Mycobacterium tuberculosis; experiment: Antitubercular activity against Mycobacterium tuberculosis Erdman assessed as inhibition of bacterial growth incubated for 2 weeks; format: functional; conditions: 336 h
# [25] = tested on: Mycobacterium tuberculosis; experiment: Antitubercular activity against Mycobacterium tuberculosis K14b00DS assessed as inhibition of bacterial growth incubated for 2 weeks; format: functional; conditions: 336 h
# [26] = tested on: Mycobacterium tuberculosis; experiment: Antitubercular activity against Mycobacterium tuberculosis K04b00DS assessed as inhibition of bacterial growth incubated for 2 weeks; format: functional; conditions: 336 h
# [27] = tested on: Mycobacterium tuberculosis; experiment: Antitubercular activity against Mycobacterium tuberculosis H37Rv ATCC 27294 assessed as inhibition of bacterial growth incubated for 2 weeks; format: functional; conditions: H37Rv ATCC 27294, 336 h
# [28] = Cytotoxicity against human HepG2 cells assessed as reduction in cell viability incubated for 24 hrs in DMEM/10% FBS supplemented with glucose by CellTiter-Glo luminescent assay; format: toxicity, cell-based
# [29] = Cytotoxicity against human HepG2 cells assessed as reduction in cell viability incubated for 24 hrs in DMEM/10% FBS supplemented with galactose by CellTiter-Glo luminescent assay; format: toxicity, cell-based
# [30] = tested on: Mycobacterium tuberculosis; experiment: Antitubercular activity against Mycobacterium tuberculosis infected in mouse J774 cells assessed as decrease in colony forming unit enumeration on solid medium at 5XMIC measured after 7 days; format: functional, organism-based; conditions: time 7.0 day
# [31] = target: T1, Decaprenylphosphoryl-beta-D-ribose oxidase (Mycobacterium tuberculosis (strain ATCC 25618 / H37Rv)) (UniProt P9WJF1); experiment: Inhibition of DprE1-mediated cell wall synthesis in Mycobacterium tuberculosis H37Rv transfected with PiniB-LUX reporter assessed as induction of reporter gene expression incubated for 12 days by bioluminescence analysis; conditions: time 12.0 day
# T1 sequence (whole entry): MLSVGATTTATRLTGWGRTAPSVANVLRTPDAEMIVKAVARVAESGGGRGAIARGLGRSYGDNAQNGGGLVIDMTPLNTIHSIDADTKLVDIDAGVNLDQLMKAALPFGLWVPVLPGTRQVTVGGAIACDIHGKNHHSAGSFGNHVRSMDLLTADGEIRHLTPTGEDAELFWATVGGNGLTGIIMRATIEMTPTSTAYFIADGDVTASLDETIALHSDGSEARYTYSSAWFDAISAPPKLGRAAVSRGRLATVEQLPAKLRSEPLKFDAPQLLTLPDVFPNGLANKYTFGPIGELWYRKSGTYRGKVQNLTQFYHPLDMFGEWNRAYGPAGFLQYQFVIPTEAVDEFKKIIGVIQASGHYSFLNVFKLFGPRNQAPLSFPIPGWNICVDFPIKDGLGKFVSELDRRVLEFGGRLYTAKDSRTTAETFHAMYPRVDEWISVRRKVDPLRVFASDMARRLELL
smiles,measurement,setting,value
NNC(=O)c1ccncc1 [ISONIAZID],Activity,[1],inactive
same,MIC,[2],0.39 µM
same,MIC,[3],0.16 µM
same,MIC,[4],0.2 µM
same,MIC,[5],0.2 µM
same,MIC,[6],0.1 µM
same,MIC,[7],0.39 µM
same,Activity,[8],inactive
COc1nc2ccc(Br)cc2cc1[C@@H](c1ccccc1)[C@@](O)(CCN(C)C)c1cccc2ccccc12 [BEDAQUILINE],MIC,[9],0.3 µM
same,MIC,[10],0.2 µM
same,MIC,[11],0.1 µM
same,MIC,[12],0.2 µM
same,MIC,[13],0.07 µM
same,MIC,[14],0.15 µM
same,MIC,[15],0.1 µM
same,MIC,[16],0.04 µM
same,MIC,[17],0.07 µM
same,MIC,[18],0.07 µM
same,MIC,[19],0.07 µM
same,MIC,[20],0.05 µM
same,MIC,[21],0.05 µM
same,MIC,[22],0.1 µM
same,MIC,[23],0.05 µM
same,MIC,[24],0.1 µM
same,MIC,[25],0.6 µM
same,MIC,[26],0.04 µM
same,MIC,[27],0.15 µM
O=C(C1CCN(c2nnc(-c3ccccc3)o2)CC1)N1CCC(CC2CCCCC2)CC1,MIC,[3],0.2 µM
same,MIC,[6],0.05 µM
same,IC50 at 24 h,[28],> 50 µM
same,IC50 at 24 h,[29],> 50 µM
O=C(C1CCN(c2nnc(-c3ccccc3)o2)CC1)N1CCC(Cc2ccccc2)CC1,MIC,[9],1.56 µM
same,MIC,[10],1.2 µM
same,MIC,[11],0.78 µM
same,MIC,[12],2.3 µM
same,Activity,[1],inactive
same,MIC,[13],0.78 µM
same,MIC,[14],1.2 µM
same,MIC,[15],1.2 µM
same,MIC,[16],1.56 µM
same,MIC,[17],1.2 µM
same,MIC,[2],0.78 µM
same,MIC,[3],0.78 µM
same,MIC,[4],0.78 µM
same,MIC,[5],0.6 µM
same,MIC,[18],0.6 µM
same,MIC,[19],0.78 µM
same,MIC,[20],0.78 µM
same,MIC,[21],1.2 µM
same,MIC,[22],1.2 µM
same,MIC,[6],0.1 µM
same,MIC,[7],0.6 µM
same,MIC,[23],0.78 µM
same,MIC,[24],0.39 µM
same,MIC,[25],1.2 µM
same,MIC,[26],0.78 µM
same,IC50 at 24 h,[28],> 50 µM
same,MIC,[27],0.6 µM
same,IC50 at 24 h,[29],37.5 µM
same,Activity,[30],Active
same,Activity,[8],inactive
same,inhibition,[31],Active
CCN(CC)C(=O)C1CCN(c2nnc(-c3ccccc3)o2)CC1,MIC,[3],> 50 µM
same,MIC,[6],> 50 µM
same,IC50 at 24 h,[28],> 50 µM
same,IC50 at 24 h,[29],> 50 µM
O=C(C1CCN(c2nnc(-c3ccccc3)o2)CC1)N1CCC(=Cc2ccccc2)CC1,MIC,[3],2.3 µM
same,MIC,[6],0.3 µM
same,IC50 at 24 h,[28],> 50 µM
same,IC50 at 24 h,[29],37.5 µM
Cc1nnc(N2CCC(C(=O)N3CCC(Cc4ccccc4)CC3)CC2)o1,MIC,[3],> 50 µM
same,MIC,[6],> 50 µM
same,IC50 at 24 h,[28],> 50 µM
same,IC50 at 24 h,[29],> 50 µM
O=C(C1CCN(c2nnc(-c3ccccc3)o2)CC1)N1CCN(Cc2ccccc2)CC1,MIC,[3],50 µM
same,MIC,[6],25 µM
same,IC50 at 24 h,[28],> 50 µM
same,IC50 at 24 h,[29],> 50 µM
O=C(C1CCN(c2nnc(-c3ccccc3)s2)CC1)N1CCC(Cc2ccccc2)CC1,MIC,[3],1.2 µM
same,MIC,[6],0.3 µM
same,IC50 at 24 h,[28],> 50 µM
same,IC50 at 24 h,[29],37.5 µM
O=C(NCc1ccccc1)C1CCN(c2nnc(-c3ccccc3)o2)CC1,MIC,[3],> 50 µM
same,MIC,[6],25 µM
same,IC50 at 24 h,[28],> 50 µM
same,IC50 at 24 h,[29],> 50 µM
O=C(CC1CCN(c2nnc(-c3ccccc3)o2)CC1)N1CCC(Cc2ccccc2)CC1,MIC,[3],12.5 µM
same,MIC,[6],4.7 µM
same,IC50 at 24 h,[28],> 50 µM
same,IC50 at 24 h,[29],37.5 µM
